Laboratory results as given in PubChem BioAssay (NCI).
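Compound exposure: 48 hours, 5 concentrations, 96-well plates. The concentration for 50% growth inhibition is given as GI50. The concentration for full growth arrest is given as TGI.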

Key:
Test in all cases: NCI tumour cell line growth inhibition, 48 h
SF-539 CNS = system: SF-539 CNS
M14 melanoma = system: M14 melanoma
SNB-19 CNS = system: SNB-19 CNS
UO-31 renal = system: UO-31 renal
MALME-3M melanoma = system: MALME-3M melanoma
U251 CNS = system: U251 CNS
RXF 393 renal = system: RXF 393 renal
ACHN renal = system: ACHN renal
HL-60(TB) leukemia = system: HL-60(TB) leukemia
SW-620 colon = system: SW-620 colon
CAKI-1 renal = system: CAKI-1 renal
TK-10 renal = system: TK-10 renal
MOLT-4 leukemia = system: MOLT-4 leukemia
SF-295 CNS = system: SF-295 CNS
NCI-H23 lung = system: NCI-H23 lung
SNB-75 CNS = system: SNB-75 CNS
SF-268 CNS = system: SF-268 CNS
KM12 colon = system: KM12 colon
OVCAR-4 ovarian = system: OVCAR-4 ovarian
SK-MEL-2 melanoma = system: SK-MEL-2 melanoma
A498 renal = system: A498 renal
OVCAR-3 ovarian = system: OVCAR-3 ovarian
SK-OV-3 ovarian = system: SK-OV-3 ovarian
COLO 205 colon = system: COLO 205 colon
RPMI-8226 leukemia = system: RPMI-8226 leukemia
HOP-92 NSCLC = system: HOP-92 NSCLC
HCT-15 colon = system: HCT-15 colon
IGROV1 ovarian = system: IGROV1 ovarian
A549 NSCLC = system: A549 NSCLC
OVCAR-8 ovarian = system: OVCAR-8 ovarian
HCC-2998 colon = system: HCC-2998 colon
NCI-H226 lung = system: NCI-H226 lung
UACC-257 melanoma = system: UACC-257 melanoma
NCI-H460 lung = system: NCI-H460 lung
SN12C renal = system: SN12C renal
HT29 colon = system: HT29 colon
SK-MEL-28 melanoma = system: SK-MEL-28 melanoma
K-562 leukemia = system: K-562 leukemia
SK-MEL-5 melanoma = system: SK-MEL-5 melanoma
UACC-62 melanoma = system: UACC-62 melanoma
LOX IMVI melanoma = system: LOX IMVI melanoma
KM20L2 colon = system: KM20L2 colon
HOP-62 NSCLC = system: HOP-62 NSCLC
NCI-H522 lung = system: NCI-H522 lung
786-0 renal = system: 786-0 renal
HCT-116 colon = system: HCT-116 colon
DU-145 prostate = system: DU-145 prostate
HS 578T breast = system: HS 578T breast
SR leukemia = system: SR leukemia
SNB-78 CNS = system: SNB-78 CNS
BT-549 breast = system: BT-549 breast
MDA-MB-231 breast = system: MDA-MB-231 breast
MDA-MB-435 = system: MDA-MB-435
MCF7 breast = system: MCF7 breast
T-47D breast = system: T-47D breast
CCRF-CEM leukemia = system: CCRF-CEM leukemia
MDA-N = system: MDA-N
OVCAR-5 ovarian = system: OVCAR-5 ovarian
EKVX NSCLC = system: EKVX NSCLC
PC-3 prostate = system: PC-3 prostate

`C1C[OH+]CC[OH+]CC[OH+]CC[OH+]CC[OH+]CC[OH+]1.[Cl-].[V]` showed a GI50 (SF-539 CNS) of 5.43 µM, a TGI (SF-539 CNS) of 17.9 µM and a GI50 (M14 melanoma) of 12.1 µM. It also gave a TGI (M14 melanoma) of 93.8 µM, a GI50 (SNB-19 CNS) of 47.1 µM and a TGI (SNB-19 CNS) of over 100 µM. For the same molecule, the GI50 (UO-31 renal) was over 100 µM, the TGI (UO-31 renal) was over 100 µM and the GI50 (MALME-3M melanoma) was 8.19 µM. It also gave a TGI (MALME-3M melanoma) of 28.7 µM, a GI50 (U251 CNS) of 35.8 µM and a TGI (U251 CNS) of over 100 µM. For the same molecule, the GI50 (RXF 393 renal) was 4.89 µM, the TGI (RXF 393 renal) was 19 µM and the GI50 (ACHN renal) was 31.1 µM. It also gave a TGI (ACHN renal) of over 100 µM, a GI50 (HL-60(TB) leukemia) of 37.1 µM and a TGI (HL-60(TB) leukemia) of over 100 µM. It also gave a GI50 (SW-620 colon) of 49.6 µM, a TGI (SW-620 colon) of over 100 µM and a GI50 (CAKI-1 renal) of 36.9 µM. The TGI (CAKI-1 renal) was over 100 µM, the GI50 (TK-10 renal) was 20.4 µM and the TGI (TK-10 renal) was 92.5 µM. The GI50 (MOLT-4 leukemia) was 82.5 µM, the TGI (MOLT-4 leukemia) was over 100 µM and the GI50 (SF-295 CNS) was 18.7 µM. It also gave a TGI (SF-295 CNS) of 43.8 µM, a GI50 (NCI-H23 lung) of 21.9 µM and a TGI (NCI-H23 lung) of 47.7 µM. For the same molecule, the GI50 (SNB-75 CNS) was 13.9 µM, the TGI (SNB-75 CNS) was 30 µM and the GI50 (SF-268 CNS) was 42.9 µM. The TGI (SF-268 CNS) was over 100 µM, the GI50 (KM12 colon) was 31.3 µM and the TGI (KM12 colon) was over 100 µM. It also gave a GI50 (OVCAR-4 ovarian) of 2.52 µM, a TGI (OVCAR-4 ovarian) of 9.27 µM and a GI50 (SK-MEL-2 melanoma) of 29.2 µM. For the same molecule, the TGI (SK-MEL-2 melanoma) was 98.2 µM, the GI50 (A498 renal) was over 100 µM and the TGI (A498 renal) was over 100 µM. For the same molecule, the GI50 (OVCAR-3 ovarian) was 20.7 µM, the TGI (OVCAR-3 ovarian) was 41.8 µM and the GI50 (SK-OV-3 ovarian) was 45.9 µM. It also gave a TGI (SK-OV-3 ovarian) of 97 µM, a GI50 (COLO 205 colon) of over 100 µM and a TGI (COLO 205 colon) of over 100 µM. For the same molecule, the GI50 (RPMI-8226 leukemia) was 64.1 µM, the TGI (RPMI-8226 leukemia) was over 100 µM and the GI50 (HOP-92 NSCLC) was 31.5 µM. It also gave a TGI (HOP-92 NSCLC) of 99.2 µM, a GI50 (HCT-15 colon) of 50.9 µM and a TGI (HCT-15 colon) of over 100 µM. It also gave a GI50 (IGROV1 ovarian) of 13 µM, a TGI (IGROV1 ovarian) of over 100 µM and a GI50 (A549 NSCLC) of 39.1 µM. For the same molecule, the TGI (A549 NSCLC) was over 100 µM, the GI50 (OVCAR-8 ovarian) was over 100 µM and the TGI (OVCAR-8 ovarian) was over 100 µM. The GI50 (HCC-2998 colon) was 71.9 µM, the TGI (HCC-2998 colon) was over 100 µM and the GI50 (NCI-H226 lung) was 40.1 µM. It also gave a TGI (NCI-H226 lung) of over 100 µM, a GI50 (UACC-257 melanoma) of 16.6 µM and a TGI (UACC-257 melanoma) of 37.4 µM. It also gave a GI50 (NCI-H460 lung) of 36 µM, a TGI (NCI-H460 lung) of over 100 µM and a GI50 (SN12C renal) of over 100 µM. It also gave a TGI (SN12C renal) of over 100 µM, a GI50 (HT29 colon) of 39.7 µM and a TGI (HT29 colon) of over 100 µM. The GI50 (SK-MEL-28 melanoma) was 13.7 µM, the TGI (SK-MEL-28 melanoma) was 43.5 µM and the GI50 (K-562 leukemia) was over 100 µM. The TGI (K-562 leukemia) was over 100 µM, the GI50 (SK-MEL-5 melanoma) was 4.76 µM and the TGI (SK-MEL-5 melanoma) was 25.3 µM. The GI50 (UACC-62 melanoma) was 10.7 µM, the TGI (UACC-62 melanoma) was 51.4 µM and the GI50 (LOX IMVI melanoma) was 20.7 µM. The TGI (LOX IMVI melanoma) was 38.7 µM, the GI50 (KM20L2 colon) was 46.5 µM and the TGI (KM20L2 colon) was over 100 µM. The GI50 (HOP-62 NSCLC) was 19.2 µM, the TGI (HOP-62 NSCLC) was 33.9 µM and the GI50 (NCI-H522 lung) was 26.3 µM. It also gave a TGI (NCI-H522 lung) of 99.5 µM, a GI50 (786-0 renal) of 11.7 µM and a TGI (786-0 renal) of 33.9 µM. For the same molecule, the GI50 (HCT-116 colon) was 35.9 µM and the TGI (HCT-116 colon) was over 100 µM.
`CN(C)CCCNc1ccnc2cccc([N+](=O)[O-])c12` gave a TGI (SF-539 CNS) of 45.1 µM, a TGI (M14 melanoma) of 25.8 µM and a TGI (SNB-19 CNS) of 56.6 µM. For the same molecule, the TGI (UO-31 renal) was 38.8 µM, the TGI (MALME-3M melanoma) was 21.4 µM and the TGI (U251 CNS) was over 70.7 µM. For the same molecule, the TGI (DU-145 prostate) was over 100 µM, the TGI (RXF 393 renal) was 61.1 µM and the TGI (HS 578T breast) was 97.1 µM. For the same molecule, the TGI (ACHN renal) was 24.3 µM, the TGI (SR leukemia) was over 100 µM and the TGI (HL-60(TB) leukemia) was over 100 µM. For the same molecule, the TGI (SNB-78 CNS) was 61.6 µM, the TGI (BT-549 breast) was 43.9 µM and the TGI (SW-620 colon) was 40.1 µM. For the same molecule, the TGI (CAKI-1 renal) was 52.8 µM, the TGI (TK-10 renal) was 36 µM and the TGI (MOLT-4 leukemia) was over 100 µM. It also gave a TGI (SF-295 CNS) of 36.5 µM, a TGI (NCI-H23 lung) of 23.5 µM and a TGI (MDA-MB-231 breast) of 39.6 µM. It also gave a TGI (SNB-75 CNS) of 73.4 µM, a TGI (SF-268 CNS) of 47.7 µM and a TGI (KM12 colon) of 27 µM. It also gave a TGI (OVCAR-4 ovarian) of 20.4 µM, a TGI (SK-MEL-2 melanoma) of 33.8 µM and a TGI (A498 renal) of 30.7 µM. The TGI (OVCAR-3 ovarian) was 20.6 µM, the TGI (SK-OV-3 ovarian) was 22.9 µM and the TGI (COLO 205 colon) was 15.6 µM. For the same molecule, the TGI (RPMI-8226 leukemia) was over 100 µM, the TGI (HOP-92 NSCLC) was 28.8 µM and the TGI (MDA-MB-435) was 42.3 µM. For the same molecule, the TGI (HCT-15 colon) was 39.9 µM, the TGI (MCF7 breast) was 28.2 µM and the TGI (IGROV1 ovarian) was 28.3 µM. It also gave a TGI (A549 NSCLC) of 35.7 µM, a TGI (T-47D breast) of 80.8 µM and a TGI (OVCAR-8 ovarian) of over 100 µM. The TGI (CCRF-CEM leukemia) was over 100 µM, the TGI (HCC-2998 colon) was 32.1 µM and the TGI (NCI-H226 lung) was 38.2 µM. It also gave a TGI (UACC-257 melanoma) of 30.7 µM, a TGI (NCI-H460 lung) of 25.2 µM and a TGI (MDA-N) of 47 µM. The TGI (SN12C renal) was 30.8 µM, the TGI (HT29 colon) was 27 µM and the TGI (SK-MEL-28 melanoma) was 35.4 µM. For the same molecule, the TGI (K-562 leukemia) was over 100 µM, the TGI (SK-MEL-5 melanoma) was 24.4 µM and the TGI (OVCAR-5 ovarian) was 44.1 µM. It also gave a TGI (LOX IMVI melanoma) of 35.8 µM, a TGI (EKVX NSCLC) of 19.9 µM and a TGI (KM20L2 colon) of 25.9 µM. The TGI (HOP-62 NSCLC) was over 56.9 µM, the TGI (NCI-H522 lung) was 18.2 µM and the TGI (786-0 renal) was 37.1 µM. For the same molecule, the TGI (HCT-116 colon) was 27.7 µM and the TGI (PC-3 prostate) was 30.3 µM.
